Test results: paper PMC6009888, “Design, synthesis, and pharmacological evaluation of 2-amino-5-nitrothiazole derived semicarbazones as dual inhibitors of monoamine oxidase and cholinesterase: effect of the size of aryl binding site” (Journal of Enzyme Inhibition and Medicinal Chemistry, 2017)
Several values for one entry are separate records, joined by “and”; a condition that tells them apart may be missing. Equal values may be shown once. Entries after “also recorded” stand apart in the source; their conditions may differ. Read-outs that look alike come from different tables or passages of the source.

Tests used:
[1] = In vitro DPPH radical scavenging assay; details: test sample 100 µg/ml, 100 µM methanolic DPPH, 30 min, 517 nm
Experimental: Antioxidant activity of the synthesised compounds (10 mg/ml) was evaluated using the radical scavenging capability against the stable free radical, 2,2′-diphenyl-1-picryl hydrazyl (DPPH·). The DPPH· scavenging capability was determined using UV based spectrophotometric assay. About 200 µl of the test sample solution (100 µg/ml) was added to 4 ml of 100 µM methanolic DPPH. […] Ascorbic acid (100 µg/ml) was used as reference. The percentage inhibition of DPPH activity was estimated using the formula: Percent (%) inhibition of DPPH activity = Acontrol-Asample/Acontrol×100 where Acontrol is the absorbance of DPPH· in methanol without an antioxidant and Asample is the absorbance of DPPH· in the presence of an antioxidant.

mice = assay: Neurotoxicity screening (rotarod test); type: in vivo; details: for Neurotoxicity (animals that exhibit toxicity / animals tested): 30 mg/kg i.p.; for Neurotoxicity (verdict in words): 30 mg/kg, relative to phenytoin
Experimental: The neurotoxicity screening was undertaken according to the method followed by the National Institute of Health, using their reported procedures[55]^,[56]. Male albino mice (CF-1 strain or Swiss, 18–25 g) were used as experimental animals. The animals were housed in metabolic cages, and allowed free access to food and water. The test compounds were suspended in 0.5% methylcellulose/water mixture or in polyethylene glycol (PEG 200).
Minimal motor impairment was measured in mice by the rotarod test. The mice were trained to stay on an accelerating rotarod that rotates at six revolutions per minute. The rod diameter was 3.2 cm. Trained animals were given i.p. injection of the selected inhibitors at a dose of 30 mg/kg. Neurotoxicity was indicated by the inability of the animal to maintain equilibrium on the rod for at least 1 min in each of the three trials.

rat brain AChE = biological target: T1, rat brain AChE (Rattus norvegicus, UniProt P37136); assay: biochemical; type: biochemical; details: for IC50: rat brain AChE, ACTI substrate, mean ± SEM, triplicate
T1 construct: the resulting clear supernatants obtained were used as enzyme sources; from tissue; host or cells: rat brain cortex homogenate, 10,000 g supernatant
Experimental: Rat brain was used as a source of AChE enzyme. Rats were separately decapitated, the brain cortices quickly removed, weighed and homogenised in cold 10 mM Tris-HCl buffer, pH 7.2, containing 160 mM sucrose. The homogenates were centrifuged at 10,000 g for 10 min at 4 °C, and the resulting clear supernatants obtained were used as enzyme sources that were divided into aliquots and stored at −20 °C.
About 30 µl of enzyme sample (AChE) was added to 60 µl of 20 mM sodium phosphate buffer (pH 7.4) and were incubated in the presence of 30 µl of 10 mM DTNB solution with different concentrations of the test compounds. The enzyme reaction was initiated by the addition of 30 µl of 0.8 mM ACTI. The mixtures were incubated for 15 min at 25 °C. […] Control experiments were carried out without inhibitor, and blanks were run without AChE enzyme. All the assays were performed in triplicate. IC50 values were determined using the GraphPad Prism 5.0 (San Diego, CA) and the results were expressed as mean ± SEM.
(§1) 0, 15, 30 and 60 min at 25 °C in sodium phosphate buffer (20 mM, pH 7.4) and DTNB solution (10 mM). […] The reaction was further incubated at 25 °C for a further 15 min and the residual enzyme activities were measured and the bar graphs were constructed. All measurements were carried out in triplicate and are expressed as mean ± SEM.

MAO-A = biological target: T2, MAO-A (Rattus norvegicus, UniProt P21396); assay: In vitro MAO-A inhibition assay (rat brain mitochondria, serotonin substrate); type: biochemical; details: for IC50: rat brain mitochondria, serotonin substrate, mean ± SEM, triplicate
T2 construct: employing crude rat brain mitochondrial suspension; from tissue; host or cells: brain mitochondria of adult Wistar rats
T2 sequence (P21396 1-526): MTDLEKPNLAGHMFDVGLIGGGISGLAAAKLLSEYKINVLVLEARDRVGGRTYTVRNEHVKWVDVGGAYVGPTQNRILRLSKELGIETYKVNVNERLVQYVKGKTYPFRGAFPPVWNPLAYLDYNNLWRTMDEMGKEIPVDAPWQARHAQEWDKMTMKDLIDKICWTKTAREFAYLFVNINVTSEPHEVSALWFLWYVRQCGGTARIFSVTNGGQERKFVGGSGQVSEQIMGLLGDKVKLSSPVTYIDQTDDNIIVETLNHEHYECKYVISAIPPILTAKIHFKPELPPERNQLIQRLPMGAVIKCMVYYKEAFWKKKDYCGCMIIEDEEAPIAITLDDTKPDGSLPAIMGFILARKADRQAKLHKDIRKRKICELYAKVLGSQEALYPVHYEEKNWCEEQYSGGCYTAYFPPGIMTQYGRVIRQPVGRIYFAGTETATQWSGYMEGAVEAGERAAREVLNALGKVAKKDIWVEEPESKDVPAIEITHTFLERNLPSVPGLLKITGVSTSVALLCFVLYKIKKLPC
Experimental: Rat brain mitochondria were used as a source of MAO isoforms. All operations were carried out at 4 °C[50]. Male and female adult Wistar rats weighing 200–220 g were decapitated. All brains were rapidly removed and homogenised with a Potter–Elvehjem homogeniser in cold 0.32 M sucrose and 50 mM Tris-HCl, pH 8.2 (10:1, v/w). The homogenate was centrifuged twice at 1000 g for 5 min at 4 °C. The resulting supernatant was centrifuged at 20,000 g for 20 min. The mitochondrial pellet obtained was suspended in 100 mM sodium phosphate buffer, pH 7.4 (4:1, v/w), fractionated in plastic vials to 500 µl samples and stored at −80 °C. Before use, mitochondria were diluted with 100 mM sodium phosphate buffer to give a working solution of 0.80 mg of protein per millilitre.
The experiments were carried out under all the suitable laboratory conditions. […] An aliquot was made to contain mixture of 55 µl mitochondrial suspension (0.80 mg of protein/ml), 90 µl 50 mM Tris-HCl buffer, pH 8.2 and 30 µl solubilising solution (control or inhibitor solution at five different concentrations). The reaction was initiated by adding 25 µl of serotonin (4 mM, substrate for MAO-A) and 25 µl benzylamine (0.1 M, substrate for MAO-B) for the determination of MAO-A and MAO-B activity, respectively. The mixture was incubated at 37 °C for 30 min and the reaction was stopped by the addition of 50 µl of 1 N HCl. The absorbance associated with the production of 5-hydroxyindolacetic acid was measured at 280 nm for the estimation of MAO-A while for MAO-B estimation, the absorbance was measured at 250 nm due to the formation of benzaldehyde. All the assays were performed in triplicate. Control experiments were carried out without inhibitor and blanks were run without mitochondrial suspension.
Data are expressed as mean ± standard error mean (SEM) of experiments performed in triplicate.
as §1, with “37” for “25”, “Tris-HCl” for “sodium phosphate”, “(50” for “(20”, “8.2).” for “7.4) and DTNB solution (10 mM).”, “reactions were” for “reaction was”

[2] = read-out: AChE In vitro IC50 (µM) ± SEM
[3] = time-dependent inhibition, pre-incubation 0, 15, 30, 60 min
[4] = read-out: MAO-A In vitro IC50 (µM) ± SEM

T1 sequence (P37136 32-614): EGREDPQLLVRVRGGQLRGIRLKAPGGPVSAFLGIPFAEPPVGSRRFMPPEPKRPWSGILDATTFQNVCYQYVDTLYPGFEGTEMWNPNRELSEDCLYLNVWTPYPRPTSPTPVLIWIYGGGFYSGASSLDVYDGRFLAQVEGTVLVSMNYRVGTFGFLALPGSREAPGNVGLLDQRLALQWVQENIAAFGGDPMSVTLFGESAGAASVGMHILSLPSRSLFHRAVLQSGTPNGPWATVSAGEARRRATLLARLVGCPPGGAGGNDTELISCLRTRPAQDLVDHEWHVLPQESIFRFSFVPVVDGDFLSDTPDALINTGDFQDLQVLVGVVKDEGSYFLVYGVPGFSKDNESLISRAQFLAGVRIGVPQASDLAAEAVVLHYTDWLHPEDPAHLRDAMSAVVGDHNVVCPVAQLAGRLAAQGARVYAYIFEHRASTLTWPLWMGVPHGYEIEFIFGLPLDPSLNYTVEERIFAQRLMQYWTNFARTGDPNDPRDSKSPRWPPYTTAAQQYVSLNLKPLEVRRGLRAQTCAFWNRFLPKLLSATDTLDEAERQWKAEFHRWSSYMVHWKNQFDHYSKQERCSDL

Row | Compound | % inhibition of DPPH activity [1] [%] | logP (physchem; octanol/water) | Neurotoxicity (animals that exhibit toxicity / animals tested) (mice; 0.5 h) | Neurotoxicity (animals that exhibit toxicity / animals tested) (mice; 1 h) | Neurotoxicity (animals that exhibit toxicity / animals tested) (mice; 2 h) | Neurotoxicity (animals that exhibit toxicity / animals tested) (mice; 4 h) | Neurotoxicity (verdict in words) (mice) | Mode of AChE inhibition (rat brain AChE; Lineweaver–Burk plots, ACTI) | IC50 (rat brain AChE; [2]) [µM] | Reversibility of AChE inhibition (rat brain AChE; [3]) | Mode of MAO-A inhibition (MAO-A; Lineweaver–Burk plots, serotonin) | Ki (MAO-A; kinetic study, non-competitive model, GraphPad Prism, read-out: Ki (dissociation constant) against MAO-A) [µM] | IC50 (MAO-A; [4]) | Reversibility of MAO-A inhibition (MAO-A; [3]) | logP (physchem) | IC50 (rat brain AChE; AChE In vitro IC50 (µM) ± SEM) [µM] | AChE: fold increase in activity relative to compound 17 (rat brain AChE; diaryl analogues) [fold] | IC50 (MAO-A; MAO-A In vitro IC50 (µM) ± SEM) | AChE: fold decrease in activity versus bromo substitution (compound 4) (rat brain AChE; halogen at carbimino terminal phenyl ring) [fold]
1 | O=C(NN=C1C(=O)Nc2ccc(Br)cc21)Nc1ncc([N+](=O)[O-])s1 [Compound 21, 1-(5-Bromo-2-oxoindolin-3-ylidene)-4–(5-nitrothiazol-2-yl)semicarbazide] | 65.65 | 1.9 | 1/4 | 0/4 | 0/4 | 0/4 | mildly neurotoxic; also recorded: slightly neurotoxic | mixed-type | 0.264 | reversible | non-competitively | 17.3 ± 1.79 | < 100 µM and 57.2 µM | reversible | – | – | – | – | –
2 | CC(=NNC(=O)Nc1ncc([N+](=O)[O-])s1)c1ccc(Br)cc1 [Compound 4, 1-(1-(4-Bromophenyl)ethylidene)-4-(5-nitrothiazol-2-yl)semicarbazide] | 58.68 | 2.2 | 0/4 | 0/4 | 0/4 | 0/4 | non-neurotoxic | – | 0.34 ± 0.007 | – | – | – | < 100 µM and 70.2 µM | – | – | – | – | – | –
3 | O=C(NN=C(c1ccc(Cl)cc1)c1ccc(Cl)cc1)Nc1ncc([N+](=O)[O-])s1 [Compound 19, 1-(Bis(4-chlorophenyl)methylene)-4-(5-nitrothiazol-2-yl)semicarbazide] | 24.03 | – | 0/4 | 0/4 | 0/4 | 0/4 | – | – | – | – | – | – | – | – | 3.9 | 1.45 ± 0.047 | ~7.95 | > 100 µM and 50700 µM | –
4 | CC(=NNC(=O)Nc1ncc([N+](=O)[O-])s1)c1ccc(Cl)cc1 [Compound 5, 1-(1-(4-Chlorophenyl)ethylidene)-4-(5-nitrothiazol-2-yl)semicarbazide] | 51.83 | 2.1 | 0/4 | 0/4 | 0/4 | 0/4 | – | – | 356 ± 4.73 | – | – | – | 4761 ± 10.8 µM | – | – | – | – | – | > 1000
